Assay results as given in ChEMBL document CHEMBL5465560, “Selectivity Literature for EUbOPEN Chemogenomic Library” (2024).

Assays:
[1] = target: T1, Hormonally up-regulated neu tumor-associated kinase (Homo sapiens) (UniProt P57058); conditions: at 10 µM
T1 sequence (whole entry): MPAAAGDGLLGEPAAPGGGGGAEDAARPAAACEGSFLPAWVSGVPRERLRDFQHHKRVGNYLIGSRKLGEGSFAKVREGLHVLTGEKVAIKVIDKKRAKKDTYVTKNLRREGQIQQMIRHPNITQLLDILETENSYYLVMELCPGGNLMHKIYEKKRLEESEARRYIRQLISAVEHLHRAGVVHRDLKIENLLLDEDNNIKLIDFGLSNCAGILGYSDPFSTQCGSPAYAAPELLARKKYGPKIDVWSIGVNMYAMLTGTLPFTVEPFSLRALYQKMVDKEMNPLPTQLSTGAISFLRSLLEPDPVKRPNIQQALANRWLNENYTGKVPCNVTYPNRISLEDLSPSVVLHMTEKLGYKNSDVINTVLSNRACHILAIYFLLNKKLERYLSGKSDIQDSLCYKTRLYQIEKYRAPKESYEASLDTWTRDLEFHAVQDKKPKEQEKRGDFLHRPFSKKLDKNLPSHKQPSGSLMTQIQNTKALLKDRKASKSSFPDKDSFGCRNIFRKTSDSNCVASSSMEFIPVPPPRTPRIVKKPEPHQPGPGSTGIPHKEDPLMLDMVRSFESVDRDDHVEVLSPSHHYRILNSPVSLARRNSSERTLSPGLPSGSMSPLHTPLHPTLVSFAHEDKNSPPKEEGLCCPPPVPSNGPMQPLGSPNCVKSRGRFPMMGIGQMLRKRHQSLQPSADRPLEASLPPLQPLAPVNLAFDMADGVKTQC

[2] = target: Casein kinase I isoform gamma-1 (Homo sapiens) (UniProt Q9HCP0); test: Selectivity interaction (Ambit KINOMEscan and KiNATiv profiling in Jurkat cells) EUB0000090b CSNK1G1; format: cell-based; conditions: at 1 µM
[3] = target: Serine/threonine-protein kinase 32C (Homo sapiens) (UniProt Q86UX6); test: Selectivity interaction (KinomeScan (DiscoverX)) EUB0000695a STK32C; conditions: at 100 nM
[4] = target: Mitogen-activated protein kinase kinase kinase kinase 4 (Homo sapiens, UniProt O95819); test: Selectivity interaction (ProQinase) EUB0000171b MAP4K4
[5] = target: T2, Mitogen-activated protein kinase kinase kinase 7 (Homo sapiens) (UniProt O43318); test: Selectivity interaction (Upstate Kinase Profiler service (Millipore)) EUB0000056c MAP3K7; conditions: at 1 µM
T2 sequence (whole entry): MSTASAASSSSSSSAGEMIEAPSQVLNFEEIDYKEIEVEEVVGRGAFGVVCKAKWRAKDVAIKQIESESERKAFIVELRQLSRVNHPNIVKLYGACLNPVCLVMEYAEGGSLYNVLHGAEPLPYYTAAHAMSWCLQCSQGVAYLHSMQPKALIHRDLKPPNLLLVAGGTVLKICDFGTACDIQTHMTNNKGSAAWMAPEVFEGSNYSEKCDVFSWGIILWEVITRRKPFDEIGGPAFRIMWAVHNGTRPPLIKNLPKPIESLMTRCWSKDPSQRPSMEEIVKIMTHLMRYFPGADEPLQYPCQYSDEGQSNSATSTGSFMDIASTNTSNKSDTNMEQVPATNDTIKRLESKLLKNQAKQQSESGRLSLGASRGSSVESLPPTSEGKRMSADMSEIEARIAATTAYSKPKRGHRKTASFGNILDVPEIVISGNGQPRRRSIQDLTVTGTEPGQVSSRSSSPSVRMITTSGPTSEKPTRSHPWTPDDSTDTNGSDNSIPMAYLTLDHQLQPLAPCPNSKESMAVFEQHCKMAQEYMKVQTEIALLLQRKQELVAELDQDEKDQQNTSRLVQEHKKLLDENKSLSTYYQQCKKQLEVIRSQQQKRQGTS

[6] = target: T3, Serine/threonine-protein kinase DCLK1 (Homo sapiens) (UniProt O15075); test: Selectivity interaction (Kinase panel (DSF assay)) EUB0001558a DCLK1
T3 sequence (whole entry): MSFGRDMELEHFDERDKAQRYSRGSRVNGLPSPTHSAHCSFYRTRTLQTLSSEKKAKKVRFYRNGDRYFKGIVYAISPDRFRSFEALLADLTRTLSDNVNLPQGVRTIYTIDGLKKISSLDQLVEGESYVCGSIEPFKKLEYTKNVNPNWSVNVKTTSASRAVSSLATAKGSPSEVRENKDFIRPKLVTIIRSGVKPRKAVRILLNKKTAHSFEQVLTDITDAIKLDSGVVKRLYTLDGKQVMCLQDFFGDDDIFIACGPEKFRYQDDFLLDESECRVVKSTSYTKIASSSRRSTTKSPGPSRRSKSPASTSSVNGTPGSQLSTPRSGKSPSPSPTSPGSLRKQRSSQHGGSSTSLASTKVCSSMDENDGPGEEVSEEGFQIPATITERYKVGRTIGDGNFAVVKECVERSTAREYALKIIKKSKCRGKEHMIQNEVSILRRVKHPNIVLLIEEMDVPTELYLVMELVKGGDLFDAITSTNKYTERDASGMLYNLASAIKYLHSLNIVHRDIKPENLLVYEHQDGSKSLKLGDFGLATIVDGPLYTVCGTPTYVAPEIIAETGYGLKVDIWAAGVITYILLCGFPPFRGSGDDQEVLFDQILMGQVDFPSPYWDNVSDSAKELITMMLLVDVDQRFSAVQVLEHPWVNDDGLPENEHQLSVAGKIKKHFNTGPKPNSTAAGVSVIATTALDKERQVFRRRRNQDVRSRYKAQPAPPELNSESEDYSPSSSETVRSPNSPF

Mitogen-activated protein kinase kinase kinase kinase 4, sequence (O95819 2-1239 limits assumed): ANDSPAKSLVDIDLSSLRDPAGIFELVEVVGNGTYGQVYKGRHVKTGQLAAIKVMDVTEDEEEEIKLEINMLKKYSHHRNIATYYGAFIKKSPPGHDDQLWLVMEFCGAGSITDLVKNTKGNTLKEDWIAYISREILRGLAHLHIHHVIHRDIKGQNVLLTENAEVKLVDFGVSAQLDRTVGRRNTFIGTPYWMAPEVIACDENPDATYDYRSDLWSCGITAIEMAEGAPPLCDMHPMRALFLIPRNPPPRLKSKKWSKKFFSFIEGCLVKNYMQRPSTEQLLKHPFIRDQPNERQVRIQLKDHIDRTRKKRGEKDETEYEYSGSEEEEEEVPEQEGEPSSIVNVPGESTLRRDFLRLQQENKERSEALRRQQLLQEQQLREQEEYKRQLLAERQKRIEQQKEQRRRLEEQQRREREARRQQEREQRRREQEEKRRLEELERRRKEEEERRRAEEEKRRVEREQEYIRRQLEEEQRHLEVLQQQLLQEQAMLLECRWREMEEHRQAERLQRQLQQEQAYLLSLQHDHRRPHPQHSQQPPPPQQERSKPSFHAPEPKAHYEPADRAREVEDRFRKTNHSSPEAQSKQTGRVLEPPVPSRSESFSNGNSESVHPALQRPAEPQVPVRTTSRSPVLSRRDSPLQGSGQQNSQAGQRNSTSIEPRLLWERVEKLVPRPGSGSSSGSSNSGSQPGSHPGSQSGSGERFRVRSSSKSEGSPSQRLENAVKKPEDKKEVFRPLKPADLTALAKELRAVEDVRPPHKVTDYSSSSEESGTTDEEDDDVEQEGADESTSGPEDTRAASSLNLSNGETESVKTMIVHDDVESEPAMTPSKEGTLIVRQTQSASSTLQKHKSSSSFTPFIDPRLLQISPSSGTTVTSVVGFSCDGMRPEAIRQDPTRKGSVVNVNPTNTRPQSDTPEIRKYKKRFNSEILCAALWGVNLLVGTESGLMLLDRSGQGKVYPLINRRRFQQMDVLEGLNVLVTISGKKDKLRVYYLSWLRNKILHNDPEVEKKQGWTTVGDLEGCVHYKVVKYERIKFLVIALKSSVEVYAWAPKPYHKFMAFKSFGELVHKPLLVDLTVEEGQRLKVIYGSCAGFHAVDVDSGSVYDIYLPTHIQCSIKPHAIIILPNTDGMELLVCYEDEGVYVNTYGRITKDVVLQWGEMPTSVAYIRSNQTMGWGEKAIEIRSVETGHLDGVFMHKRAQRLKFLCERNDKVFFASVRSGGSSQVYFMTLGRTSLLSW
Serine/threonine-protein kinase 32C (Homo sapiens), sequence (Q86UX6 whole entry): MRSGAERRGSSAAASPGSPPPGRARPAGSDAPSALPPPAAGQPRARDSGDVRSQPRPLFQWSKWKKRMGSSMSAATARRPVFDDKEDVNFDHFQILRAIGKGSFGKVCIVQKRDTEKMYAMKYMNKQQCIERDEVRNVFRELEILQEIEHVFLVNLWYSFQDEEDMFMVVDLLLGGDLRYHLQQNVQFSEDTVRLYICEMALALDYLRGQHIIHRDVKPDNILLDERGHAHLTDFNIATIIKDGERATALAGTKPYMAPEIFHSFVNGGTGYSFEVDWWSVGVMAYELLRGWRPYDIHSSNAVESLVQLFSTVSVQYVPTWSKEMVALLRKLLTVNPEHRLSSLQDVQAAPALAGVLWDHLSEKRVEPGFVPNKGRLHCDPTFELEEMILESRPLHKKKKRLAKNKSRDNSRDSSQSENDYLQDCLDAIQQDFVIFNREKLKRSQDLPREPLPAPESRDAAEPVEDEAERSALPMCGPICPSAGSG
Casein kinase I isoform gamma-1 (Homo sapiens), sequence (Q9HCP0 whole entry, looked up, canonical isoform): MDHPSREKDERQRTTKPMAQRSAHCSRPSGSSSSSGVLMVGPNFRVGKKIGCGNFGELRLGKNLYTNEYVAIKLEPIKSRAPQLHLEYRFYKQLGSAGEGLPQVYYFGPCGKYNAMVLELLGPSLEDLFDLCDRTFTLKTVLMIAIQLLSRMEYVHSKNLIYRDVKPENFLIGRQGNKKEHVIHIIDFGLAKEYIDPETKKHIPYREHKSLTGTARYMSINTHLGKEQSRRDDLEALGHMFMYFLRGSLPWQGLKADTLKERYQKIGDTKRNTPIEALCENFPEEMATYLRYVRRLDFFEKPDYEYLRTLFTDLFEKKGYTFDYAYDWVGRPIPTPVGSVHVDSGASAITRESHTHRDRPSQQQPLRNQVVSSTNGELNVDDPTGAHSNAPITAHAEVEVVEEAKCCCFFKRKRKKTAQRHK

With Cc1cc([C@@H](C)Nc2ccccc2C(=O)O)c2nc(N3CCOCC3)cc(=O)n2c1 [AZD-6482] the % of control [1] was 81%.
In the case of CN(C)C/C=C/C(=O)Nc1ccc(C(=O)N2CCCC(Nc3ncc(Cl)c(-c4c[nH]c5ccccc45)n3)C2)cc1 (configuration not stated), the % of control [2] is reported as 94%.
With Cc1cc(F)c(C(=O)Nc2cccc(-c3nncn3C(C)C)n2)cc1-n1cnc(C2CC2)c1 the % of control [3] was 100%.
In the case of C=CC(=O)Nc1cccc(C(=O)Nc2ccc(Nc3cc(-c4[nH]c(SC)nc4C)ccn3)cc2)c1, the % of control ([4]; at 1 µM) is reported as 79% and the % of control ([4]; at 5 µM) is reported as 55%.
In the case of Cc1ccc(-c2ccc3c(ccc4sc5c(c43)NC[C@@H](C)NC5=O)n2)cn1, the % of inhibition [5] is reported as 6%.
CC(C)(O)[C@H](F)CN1Cc2cc(NC(=O)c3cnn4cccnc34)c(N3CCOCC3)cc2C1=O showed a dTM [6] of -1 K.
